Results reported in PubChem BioAssay AID248 (DTP/NCI, 2004).
Where “and” joins values, the source holds several entries; their conditions need not be identical. Equal values may be shown once. Toxic doses and inconclusive results are not listed. Cut-off read from the data, not from the text of the source: active = T/C of 150% or more; inactive = T/C below 125%.

Test system: L1210 leukemia ip in BDF1 mice, survival T/C
Experiment: NCI In Vivo Anticancer Drug Screen. Data for tumor model L1210 Leukemia (intraperitoneal) in B6D2F1 (BDF1) mice
Conditions: endpoint: mean survival time, higher = longer survival
Summary of the method: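 Survival endpoint. Drug-treated group vs vehicle group, expressed as T divided by C. Tumor passaged by transplantation.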

[1] = dose: 100.0 mg/kg/injection, schedule: Q01DX009 (ip), vehicle: Klucel (hydroxypropylcellulose) (HPC)
[2] = dose: 100.0 mg/kg/injection, schedule: Q04DX003 (ip), vehicle: Klucel (hydroxypropylcellulose) (HPC)
[3] = dose: 200.0 mg/kg/injection, schedule: Q01DX009 (ip), vehicle: Klucel (hydroxypropylcellulose) (HPC)
[4] = dose: 200.0 mg/kg/injection, schedule: Q04DX003 (ip), vehicle: Klucel (hydroxypropylcellulose) (HPC)
[5] = dose: 50.0 mg/kg/injection, schedule: Q01DX009 (ip), vehicle: saline with Tween-80
[6] = dose: 100.0 mg/kg/injection, schedule: Q04DX003 (ip), vehicle: saline with Tween-80
[7] = dose: 400.0 mg/kg/injection, schedule: Q01DX001 (ip), vehicle: saline
[8] = dose: 100.0 mg/kg/injection, schedule: Q01DX001 (ip), vehicle: saline
[9] = dose: 200.0 mg/kg/injection, schedule: Q01DX001 (ip), vehicle: saline
[10] = dose: 100.0 mg/kg/injection, schedule: Q01DX009 (ip), vehicle: saline with Tween-80
[11] = dose: 200.0 mg/kg/injection, schedule: Q01DX009 (ip), vehicle: saline with Tween-80
[12] = dose: 400.0 mg/kg/injection, schedule: Q01DX009 (ip), vehicle: saline with Tween-80

Measured: T/C

CP1(=O)CC2OC2C1 (configuration not stated)
inactive: dose: 50.0 mg/kg/injection, schedule: Q01DX009 (ip), vehicle: saline 96 % of control | dose: 100.0 mg/kg/injection, schedule: Q01DX009 (ip), vehicle: saline 89 % of control | dose: 200.0 mg/kg/injection, schedule: Q01DX009 (ip), vehicle: saline 93 % of control

CC12C=CC(CC1)C2OC(=O)c1ccccc1C(=O)O (configuration not stated)
inactive: [1] 95 % of control | [2] 94 % of control | [3] 97 % of control | [4] 108 % of control | dose: 400.0 mg/kg/injection, schedule: Q01DX009 (ip), vehicle: Klucel (hydroxypropylcellulose) (HPC) 92 % of control | dose: 400.0 mg/kg/injection, schedule: Q04DX003 (ip), vehicle: Klucel (hydroxypropylcellulose) (HPC) 92 % of control

O=c1c(CCO)c(C2CC2)n2n1CCCC2
inactive: dose: 9.38 mg/kg/injection, schedule: Q01DX001 (ip), vehicle: other 94 % of control | dose: 18.75 mg/kg/injection, schedule: Q01DX001 (ip), vehicle: other 103 % of control

Cc1cc(NCCN(C(C)C)C(C)C)nc(/N=C(\N)Nc2ccc(Cl)c(Cl)c2)n1
inactive: dose: 4.69 mg/kg/injection, schedule: Q01DX009 (ip), vehicle: Klucel (hydroxypropylcellulose) (HPC) 95 % of control | dose: 9.38 mg/kg/injection, schedule: Q01DX009 (ip), vehicle: Klucel (hydroxypropylcellulose) (HPC) 93 % of control | dose: 18.75 mg/kg/injection, schedule: Q01DX009 (ip), vehicle: Klucel (hydroxypropylcellulose) (HPC) 87 % of control | dose: 75.0 mg/kg/injection, schedule: Q01DX001 (ip), vehicle: other 94 % of control | dose: 150.0 mg/kg/injection, schedule: Q01DX001 (ip), vehicle: other 105 % of control

CCOC(OCC)C(=O)C(C#N)c1ccc(C#N)cc1 (configuration not stated)
inactive: dose: 3.12 mg/kg/injection, schedule: Q01DX009 (ip), vehicle: DMSO 90 % of control | dose: 6.25 mg/kg/injection, schedule: Q01DX009 (ip), vehicle: DMSO 88 % of control | dose: 12.5 mg/kg/injection, schedule: Q01DX009 (ip), vehicle: DMSO 92 % of control and 88 % of control

N#C/C([S-])=C(/[S-])C#N.N#C/C([S-])=C(/[S-])C#N.[Co].c1ccc([P+](c2ccccc2)(c2ccccc2)c2ccccc2)cc1
inactive: dose: 75.0 mg/kg/injection, schedule: Q01DX009 (ip), vehicle: Klucel (hydroxypropylcellulose) (HPC) 121 % of control | dose: 75.0 mg/kg/injection, schedule: Q04DX003 (ip), vehicle: saline 100 % of control | dose: 150.0 mg/kg/injection, schedule: Q01DX009 (ip), vehicle: Klucel (hydroxypropylcellulose) (HPC) 110 % of control | dose: 150.0 mg/kg/injection, schedule: Q04DX003 (ip), vehicle: saline 110 % of control | dose: 300.0 mg/kg/injection, schedule: Q01DX009 (ip), vehicle: Klucel (hydroxypropylcellulose) (HPC) 103 % of control | dose: 300.0 mg/kg/injection, schedule: Q04DX003 (ip), vehicle: saline 98 % of control

CC(=O)Nc1ccc(N2CCN=N2)cc1
inactive: dose: 25.0 mg/kg/injection, schedule: Q01DX009 (ip), vehicle: saline with Tween-80 103 % of control | [5] 109 % of control | [6] 97 % of control

N#CCCC(C#N)(C#N)CCC#N
inactive: dose: 175.0 mg/kg/injection, schedule: Q01DX001 (ip), vehicle: saline 97 % of control | dose: 265.0 mg/kg/injection, schedule: Q01DX001 (ip), vehicle: saline 100 % of control | [7] 96 % of control | dose: 600.0 mg/kg/injection, schedule: Q01DX001 (ip), vehicle: saline 91 % of control

COc1ccc(CN2CCCN(Cc3ccc(OC)cc3OC)C2c2ccccn2)c(OC)c1
inactive: dose: 50.0 mg/kg/injection, schedule: Q01DX001 (ip), vehicle: saline 101 % of control | [8] 95 % of control | [9] 91 % of control | [7] 89 % of control

OC(CN1CCOCC1)c1ccccc1 (configuration not stated)
inactive: [1] 94 % of control | [2] 98 % of control | [3] 95 % of control | [4] 102 % of control

c1c[nH]c(N=Nc2ccc(N=Nc3ncc[nH]3)cc2)n1
inactive: [5] 100 % of control | [10] 94 % of control | [11] 94 % of control

O=C(OC(c1ccccc1)(C(F)(F)F)C(F)(F)F)c1ccccc1Sc1ccccc1
inactive: [10] 95 % of control | [11] 101 % of control | [12] 98 % of control

COC(=O)CCC(C(=O)OC)P(=O)(OC(C)C)OC(C)C (configuration not stated)
inactive: [8] 96 % of control | [9] 102 % of control | [7] 86 % of control

COc1ccc(C(CC(=O)O)c2cc(OC)c(OC)c(OC)c2)cc1OC (configuration not stated)
inactive: dose: 100.0 mg/kg/injection, schedule: Q01DX001 (ip), vehicle: carboxymethylcellulose (CMC) 92 % of control | dose: 200.0 mg/kg/injection, schedule: Q01DX001 (ip), vehicle: carboxymethylcellulose (CMC) 93 % of control | dose: 400.0 mg/kg/injection, schedule: Q01DX001 (ip), vehicle: carboxymethylcellulose (CMC) 93 % of control

O=C(O)/C=C/c1cccc(Cl)c1
inactive: dose: 100.0 mg/kg/injection, schedule: Q01DX009 (ip), vehicle: gum acacia 113 % of control | dose: 200.0 mg/kg/injection, schedule: Q01DX009 (ip), vehicle: gum acacia 104 % of control | dose: 400.0 mg/kg/injection, schedule: Q01DX009 (ip), vehicle: gum acacia 100 % of control

CCOC(=O)CCC(C)(C#N)c1ccccc1 (configuration not stated)
inactive: [10] 104 % of control | [6] 108 % of control | [11] 98 % of control | dose: 200.0 mg/kg/injection, schedule: Q04DX003 (ip), vehicle: saline with Tween-80 99 % of control | [12] 97 % of control | dose: 400.0 mg/kg/injection, schedule: Q04DX003 (ip), vehicle: saline with Tween-80 106 % of control

O=C(Nc1ccccc1F)Oc1ccc(C2CCCCC2)cc1
inactive: [10] 104 % of control | [11] 104 % of control | [12] 101 % of control

CS(C)(=O)=C/C(=C\C(=O)c1ccccc1)c1ccccc1
inactive: dose: 25.0 mg/kg/injection, schedule: Q04DX003 (ip), vehicle: saline 100 % of control | dose: 50.0 mg/kg/injection, schedule: Q04DX003 (ip), vehicle: saline 103 % of control | dose: 100.0 mg/kg/injection, schedule: Q04DX003 (ip), vehicle: saline 97 % of control

NS(=O)(=O)N1CCCCC1
inactive: dose: 9.5 mg/kg/injection, schedule: Q01DX001 (ip), vehicle: saline 104 % of control | dose: 19.0 mg/kg/injection, schedule: Q01DX001 (ip), vehicle: saline 104 % of control | dose: 38.0 mg/kg/injection, schedule: Q01DX001 (ip), vehicle: saline 95 % of control

CCOC(=O)c1c[nH]c2ccc(N(CCCl)CCCl)cc12
inactive: dose: 5.0 mg/kg/injection, schedule: Q01DX001 (ip), vehicle: carboxymethylcellulose (CMC) 98 % of control | dose: 10.0 mg/kg/injection, schedule: Q01DX001 (ip), vehicle: carboxymethylcellulose (CMC) 104 % of control | dose: 20.0 mg/kg/injection, schedule: Q01DX001 (oral), vehicle: carboxymethylcellulose (CMC) 98 % of control | dose: 40.0 mg/kg/injection, schedule: Q01DX001 (oral), vehicle: carboxymethylcellulose (CMC) 103 % of control | dose: 80.0 mg/kg/injection, schedule: Q01DX001 (oral), vehicle: carboxymethylcellulose (CMC) 103 % of control | dose: 160.0 mg/kg/injection, schedule: Q01DX001 (oral), vehicle: carboxymethylcellulose (CMC) 107 % of control | dose: 320.0 mg/kg/injection, schedule: Q01DX001 (oral), vehicle: carboxymethylcellulose (CMC) 115 % of control

CC12COC(=O)CC1CCC1C2CCC2(C)C1CCC2(C)O (configuration not stated)
inactive: [5] 96 % of control | [8] 93 % of control | [10] 91 % of control | [9] 90 % of control | [11] 101 % of control
